Results from patent publication US20100323011A1, “PHARMACEUTICAL COMPOSITIONS OF A COMBINATION OF METFORMIN AND A DIPEPTIDYL PEPTIDASE-IV INHIBITOR” (priority 2008, published 2010).
Counter-ions that a name gives are not always drawn.

Assays:
[1] = oral administration to human Type 2 diabetics; cited from earlier work
[2] = In vitro dissolution of sitagliptin phosphate from the drug film layer; assay type: physicochemical; conditions: FIG. 4

In the case of `Cn1c(=O)cc(N2CCC[C@@H](N)C2)n(Cc2ccccc2C#N)c1=O` [alogliptin], the “effect on fasting glucose, postprandial glucose excursion and HbA1c” value (from here on “effect on fasting glucose”) [1] is given as “reduce fasting glucose and postprandial glucose excursion”.
With `N[C@@H](CC(=O)N1CCn2c(nnc2C(F)(F)F)C1)Cc1cc(F)c(F)cc1F` [sitagliptin phosphate, dihydrogenphosphate salt of (2R)-4-oxo-4-[3-(trifluoromethyl)-5,6-dihydro[1,2,4]triazolo[4,3-a]pyrazin-7(8H)-yl]-1-(2,4,5-trifluorophenyl)butan-2-amine] the “dissolution of sitagliptin phosphate compared with sitagliptin phosphate in JANUMET” value ([2]; comparator JANUMET (immediate-release metformin HCl and sitagliptin phosphate)) was “comparable” and the “time to complete dissolution of sitagliptin phosphate from the drug film layer” value ([2]; drug film layer of the composition) was no more than 30 min.
For `N[C@@H](CC(=O)N1CCn2c(nnc2C(F)(F)F)C1)Cc1cc(F)c(F)cc1F` [sitagliptin, (2R)-4-oxo-4-[3-(trifluoromethyl)-5,6-dihydro[1,2,4]triazolo[4,3-a]pyrazin-7(8H)-yl]-1-(2,4,5-trifluorophenyl)butan-2-amine], the “effect on fasting glucose” value [1] is given as “reduce fasting glucose and postprandial glucose excursion”.
For `N#C[C@@H]1CCCN1C(=O)CNC12CC3CC(CC(O)(C3)C1)C2` [vildagliptin], the “effect on fasting glucose” value [1] is given as “reduce fasting glucose and postprandial glucose excursion”.
